Common to all, as to test: NCI-60 one-dose SRB screening
Format in all cases: cell-based

One test has as its system RXF 393. Conditions: Homo sapiens, RXF 393, Renal Cancer, 10 µM one dose, 48 h, read-out: growth percentage.
The subject of the next test is OVCAR-5. Conditions: Homo sapiens, OVCAR-5, Ovarian Cancer, 10 µM one dose, 48 h, read-out: growth percentage.
The next test concerns 786-0. Conditions: Homo sapiens, 786-0, Renal Cancer, 10 µM one dose, 48 h, read-out: growth percentage.
The next test has as its system SF-295. Conditions: Homo sapiens, SF-295, CNS Cancer, 10 µM one dose, 48 h, read-out: growth percentage.
For the next test, the system named is MALME-3M. Conditions: Homo sapiens, Melanoma, 10 µM one dose, 48 h, read-out: growth percentage.
The next test has as its system SW-620. Conditions: Homo sapiens, SW-620, Colon Cancer, 10 µM one dose, 48 h, read-out: growth percentage.
The next test deals with DU-145. As to conditions: Homo sapiens, DU-145, Prostate Cancer, 10 µM one dose, 48 h, read-out: growth percentage.
For a further test, the system named is SK-MEL-5. As to conditions: Homo sapiens, SK-MEL-5, Melanoma, 10 µM one dose, 48 h, read-out: growth percentage.
The next test deals with M14. Conditions: Homo sapiens, M14, Melanoma, 10 µM one dose, 48 h, read-out: growth percentage.
In another test the test system is HL-60(TB). As to conditions: Homo sapiens, Leukemia, 10 µM one dose, 48 h, read-out: growth percentage.
For the next test, the system named is TK-10. Conditions: Homo sapiens, TK-10, Renal Cancer, 10 µM one dose, 48 h, read-out: growth percentage.
A further test concerns SF-268. Conditions: Homo sapiens, SF-268, CNS Cancer, 10 µM one dose, 48 h, read-out: growth percentage.
Another test relates to NCI-H226. As to conditions: Homo sapiens, NCI-H226, Non-Small Cell Lung Cancer, 10 µM one dose, 48 h, read-out: growth percentage.
The subject of the next test is MDA-MB-468. Conditions: Homo sapiens, MDA-MB-468, Breast Cancer, 10 µM one dose, 48 h, read-out: growth percentage.
The test system of a further test is MOLT-4. As to conditions: Homo sapiens, MOLT-4, Leukemia, 10 µM one dose, 48 h, read-out: growth percentage.
For the next test, the system named is NCI-H522. Conditions: Homo sapiens, NCI-H522, Non-Small Cell Lung Cancer, 10 µM one dose, 48 h, read-out: growth percentage.
The next test concerns UO-31. As to conditions: Homo sapiens, UO-31, Renal Cancer, 10 µM one dose, 48 h, read-out: growth percentage.

Regarding `Cc1nc(Nc2ccc(OCc3c(-c4ccccc4)no[n+]3[O-])cc2)c2cnn(-c3ccccc3)c2n1` [6b, 3-((4-((6-methyl-1-phenyl-1H-pyrazolo[3,4-d]pyrimidin-4-yl)amino)phenoxy)methyl)-4-phenyl-1,2,5-oxadiazole 2-oxide], the activity at 10 µM worked out at 111% with RXF 393; 106% in the test on OVCAR-5; 95.8% in the test with 786-0; 97.1% in the test with SF-295; 99.3% with MALME-3M; 120% with SW-620. In addition, the activity at 10 µM turned out to be 105% with DU-145; 103% in the test on SK-MEL-5; 103% in the test on M14; 122% in the test with HL-60(TB); 94.8% with TK-10; 103% in the test on SF-268. Besides, the activity at 10 µM came to 94.7% in the test with NCI-H226; 94.3% in the test with MDA-MB-468; 117% in the test on MOLT-4; 96.3% in the test with NCI-H522; 95% in the test with UO-31.

On to `O=c1[nH]c(CCl)nc2c1cnn2-c1ccccc1` [13a], for which the activity at 10 µM is 94.1% in the test with RXF 393; 111% in the test with OVCAR-5; 122% with 786-0; 110% in the test with SF-295; -38.5% in the test with MALME-3M; 102% in the test on SW-620. Also, the activity at 10 µM in the test with DU-145 stood at 98.6%; with SK-MEL-5 it was 107%; in the test on M14, 110%; in the test with HL-60(TB), 109%; in the test on TK-10, 154%; in the test on SF-268, 99.9%. Also, the activity at 10 µM in the test on NCI-H226 was 110%; in the test on MDA-MB-468, 96.6%; in the test on MOLT-4, 104%; in the test on NCI-H522 it was 103%; in the test with UO-31, -20.9%.

With `[O-][n+]1onc(-c2ccccc2)c1COc1ccc(Nc2ncnc3c2cnn3-c2ccc(Br)cc2)cc1` [6e, 3-((4-((1-(4-bromophenyl)-1H-pyrazolo[3,4-d]pyrimidin-4-yl)amino)phenoxy)methyl)-4-phenyl-1,2,5-oxadiazole 2-oxide], the activity at 10 µM turned out to be 119% with RXF 393; 98.8% in the test on OVCAR-5; 96.1% in the test with 786-0; 101% with SF-295; 95.3% in the test with MALME-3M; 115% in the test with SW-620. Besides, the activity at 10 µM was 107% in the test on DU-145; 95.9% in the test with SK-MEL-5; 102% in the test with M14; 96.1% in the test on HL-60(TB); 107% in the test with TK-10; 101% in the test on SF-268. The activity at 10 µM in the test on NCI-H226 amounted to 104%; in the test with MDA-MB-468 it was 106%; in the test on MOLT-4, 103%; in the test on NCI-H522, 96.1%; with UO-31, 84.7%.

For `Cc1nc(Nc2ccc(OCc3c(-c4ccccc4)no[n+]3[O-])cc2)c2c(C)nn(-c3ccccc3)c2n1` [6d, 3-((4-((3,6-dimethyl-1-phenyl-1H-pyrazolo[3,4-d]pyrimidin-4-yl)amino)phenoxy)methyl)-4-phenyl-1,2,5-oxadiazole 2-oxide], the activity at 10 µM in the test with RXF 393 amounted to 119%; in the test with OVCAR-5 it was 101%; with 786-0, 107%; with SF-295, 108%; with MALME-3M, 101%; with SW-620, 119%. Besides, the activity at 10 µM stood at 112% in the test on DU-145; 98% with SK-MEL-5; 96.2% in the test on M14; 111% with HL-60(TB); 126% in the test with TK-10; 106% in the test with SF-268. In addition, the activity at 10 µM in the test with NCI-H226 was 101%; with MDA-MB-468 it was 107%; in the test with MOLT-4 it was 110%; with NCI-H522 it was 105%; in the test on UO-31, 88.5%.

As to `Cc1nn(-c2ccccc2)c2nc(CNc3ccc(NCc4c(-c5ccccc5)no[n+]4[O-])cc3)[nH]c(=O)c12` [14b, 3-(((4-(((3-methyl-4-oxo-1-phenyl-4,5-dihydro-1H-pyrazolo[3,4-d]pyrimidin-6-yl)methyl)amino)phenyl)amino)methyl)-4-phenyl-1,2,5-oxadiazole 2-oxide], the activity at 10 µM was determined as 108% with RXF 393; 95.4% in the test on OVCAR-5; 125% with 786-0; 103% with SF-295; 74.1% with MALME-3M; 110% in the test on SW-620. Moreover, the activity at 10 µM in the test on DU-145 stood at 90.7%; in the test with SK-MEL-5 it was 108%; in the test on M14, 106%; in the test with HL-60(TB) it was 93.7%; in the test on TK-10, 137%; in the test with SF-268, 84.9%. In addition, the activity at 10 µM in the test on NCI-H226 turned out to be 101%; in the test with MDA-MB-468 it was 66.9%; in the test on MOLT-4, 61.5%; with NCI-H522, 80.9%; in the test on UO-31, 72.4%.

Consider `Cc1nn(-c2ccccc2)c2nc(CCl)[nH]c(=O)c12` [13b], for which the activity at 10 µM in the test on RXF 393 stood at 99.2%; in the test on OVCAR-5, 110%; with 786-0 it was 122%; in the test with SF-295 it was 109%; with MALME-3M, 2.09%; with SW-620, 85.1%. In addition, the activity at 10 µM stood at 83.6% in the test with DU-145; 110% in the test on SK-MEL-5; 103% in the test on M14; 33.1% in the test with HL-60(TB); 63.2% with TK-10; 106% in the test on SF-268. Also, the activity at 10 µM was 111% with NCI-H226; 26.6% in the test with MDA-MB-468; 79.6% with MOLT-4; 89.8% in the test on NCI-H522; -86.3% in the test with UO-31.

As for `Cc1nc(Nc2ccc(OCc3c(-c4ccccc4)no[n+]3[O-])cc2)c2cnn(-c3ccc(Br)cc3)c2n1` [6f, 3-((4-((1-(4-bromophenyl)-6-methyl-1H-pyrazolo[3,4-d]pyrimidin-4-yl)amino)phenoxy)methyl)-4-phenyl-1,2,5-oxadiazole 2-oxide], the activity at 10 µM came out at 121% in the test with RXF 393; 99.3% in the test on OVCAR-5; 82.2% in the test with 786-0; 102% with SF-295; 106% in the test on MALME-3M; 109% with SW-620. The activity at 10 µM in the test with DU-145 amounted to 104%; with SK-MEL-5, 99.7%; with M14, 94.2%; in the test on HL-60(TB) it was 100%; with TK-10, 97.7%; in the test with SF-268 it was 99.9%. Moreover, the activity at 10 µM with NCI-H226 was 108%; in the test on MDA-MB-468 it was 111%; with MOLT-4 it was 91.5%; with NCI-H522 it was 92.5%; with UO-31 it was 82.7%.

With `[O-][n+]1onc(-c2ccccc2)c1COc1ccc(Nc2ncnc3c2cnn3-c2ccccc2)cc1` [6a, 4-phenyl-3-((4-((1-phenyl-1H-pyrazolo[3,4-d]pyrimidin-4-yl)amino)phenoxy)methyl)-1,2,5-oxadiazole 2-oxide], the activity at 10 µM in the test with RXF 393 stood at 98.4%; with OVCAR-5, 110%; in the test on 786-0, 115%; in the test with SF-295 it was 98.4%; in the test on MALME-3M, 90%; in the test on SW-620, 106%. Also, the activity at 10 µM is 107% with DU-145; 102% in the test with SK-MEL-5; 104% in the test on M14; 94.7% in the test on HL-60(TB); 103% in the test on TK-10; 103% with SF-268. Moreover, the activity at 10 µM in the test with NCI-H226 worked out at 111%; in the test with MDA-MB-468, 107%; with MOLT-4, 87.4%; in the test on NCI-H522, 99.2%; in the test with UO-31, 94.2%.

Source of the values: PMC8880564, “Design, Synthesis, and Biological Evaluation of a Novel VEGFR-2 Inhibitor Based on a 1,2,5-Oxadiazole-2-Oxide Scaffold with MAPK Signaling Pathway Inhibition” (Pharmaceuticals, 2022).
